Laboratory results: paper PMC9527238, “Glutamate and GABAA receptor crosstalk mediates homeostatic regulation of neuronal excitation in the mammalian brain” (Signal Transduction and Targeted Therapy, 2022)

Experiments:
α1β2 GABAARs = molecular target: T1, α1β2 GABAARs (Rattus norvegicus, UniProt P62813+P63138); experiment: [3H]glutamate binding assay, plasma membranes of HEK293 cells overexpressing α1 and β2; conditions: 40 nM [3H]glutamate + 0.4 mM non-radiolabeled competitor
T1 construct: expressed in transfected cells; host or cells: HEK293
Experimental: For membrane preparation, transfected or non-transfected HEK293 cells were washed twice with cold PBS and harvested by scraping into 5 ml cold PBS. Cells were then centrifuged at 1200 × g for 12 min at 4 °C and medium was removed. The washing procedure was repeated twice. Then the cell pellet was re-suspended into 1 ml of 50 mM Tris-HCl buffer (pH 7.4, with protease inhibitor) and homogenized using syringes with 18-G, 21-G and 23-G needles.
To separate the membrane, the homogenate were centrifuged for 20 min at 20,000 × g at 4 °C. Then the pellet was re-suspended into 1 ml of 50 mM Tris-HCl buffer, pH 7.4 and centrifuged again. After repeating this procedure for one more time, the pellet was re-suspended into 1 ml of 50 mM Tris-HCl buffer, pH 7.4 and the protein concentration was measured.
To conduct the binding assay, 100 µg membrane enriched preparation was incubated with 40 nM [3H]-Glutamate in a total volume of 0.5 ml in 50 mM Tris-HCl buffer, pH 7.4 for 1 h on ice. […] Then the reaction was terminated by quickly filtering the solution on Whatman filter paper and washing by 3.5 ml Tris-HCl buffer. Radioactivity was measured in a Beckman liquid scintillation counter.

α1 β2 ^I180A γ2 GABAAR = molecular target: T2, α1 β2 ^I180A γ2 GABAAR (Rattus norvegicus, UniProt P62813+P63138, I205A); experiment: Patch clamp, HEK293, mutant GABAAR; assay type: cell-based; conditions: GABA-evoked currents
T2 construct: expressed in transfected cells; host or cells: HEK293
Experimental: (§1) To positively confirm one of these two putative binding sites involved in glutamate binding, we performed a systemic mutational analysis of critical amino acids around these two sites followed by electrophysiological characterizations of their impacts on glutamate potentiation in HEK293 cells expressing wild-type or mutated α1β2γ2 GABAARs (Table 1).
(§2) HEK293 cells were cultured in DMEM (Invitrogen) supplemented with 10% fetal bovine serum. Cells were grown to 40–60% confluence and transiently transfected using Lipofectamine 2000 (Invitrogen) with 1:0.5–1 plasmid/lipid ratio. Cells were transfected with a pBK-CMV expression vector containing a rat recombinant GABAAR α, β or γ subunits. Co-transections were done with a plasmid ratio of 1:1 αβ and 2:2:1 for αβγ subunit combinations, respectively. pcDNA3.1-GFP was also co-transfected along with GABAAR subunits as a transfected marker in order to facilitate the visualization of the transfected cells during electrophysiological experiments. Cells were re-plated on glass coverslips after 15–20 h transfection and were cultured for an additional 15–24 h before whole-cell patch-clamp recordings.
(§3) The site-directed mutagenesis of α, β or γ subunits were performed by using the QuikChange method (Stratagene). […] Wild-type or mutant subunits were transfected in HEK293 cells and subjected to electrophysiology examinations.
(§4) Whole-cell patch-clamp recordings were performed under voltage-clamp mode using an Axopatch 200B or 1D patch-clamp amplifier (Molecular Devices) on HEK293 cells and cultured neurons. Whole-cell currents were recorded at a holding potential of −60 mV, and signals were filtered at 2 kHz, digitized at 10 kHz (Digidata 1322 A). Recording pipettes (3–5 MΩ) were filled with the intracellular solution that contained (mM): CsCl 140, HEPES 10, Mg-ATP 4, QX-314 5, pH 7.20; osmolarity, 290–295 mOsm. BAPTA (10 mM) was added in the intracellular solution. The coverslips were continuously superfused with the extracellular solution containing (mM): NaCl 140, KCl 5.4, HEPES 10, MgCl2 1.0, CaCl2 1.3, glucose 20, pH 7.4; osmolarity, 305–315 mOsm. […] Dose–response curves were created by fitting data to Hill equation: I = Imax/[1 + (EC50/[A])^n], where I is the current, Imax is the maximum current, [A] is a given concentration of agonist, n is the Hill coefficient. […] All experiments were performed at room temperature.

α1 β2^G126A γ2 GABAAR = molecular target: T3, α1 β2^G126A γ2 GABAAR (Rattus norvegicus, UniProt P62813+P63138, G151A); experiment: Patch clamp, HEK293, mutant GABAAR; assay type: cell-based
T3 construct: expressed in transfected cells; host or cells: HEK293
Experimental: as §1, §2, §3, §4

α1 β2^Q63A γ2 GABAAR = molecular target: T4, α1 β2^Q63A γ2 GABAAR (Rattus norvegicus, UniProt P62813+P63138, Q88A); experiment: Patch clamp, HEK293, mutant GABAAR; assay type: cell-based
T4 construct: expressed in transfected cells; host or cells: HEK293
Experimental: as §1, §2, §3, §4

α1 β2^V177A γ2 GABAAR = molecular target: T5, α1 β2^V177A γ2 GABAAR (Rattus norvegicus, UniProt P62813+P63138, V202A); experiment: Patch clamp, HEK293, mutant GABAAR; assay type: cell-based
T5 construct: expressed in transfected cells; host or cells: HEK293
Experimental: as §1, §2, §3, §4

α1 β2^Y61A γ2 GABAAR = molecular target: T6, α1 β2^Y61A γ2 GABAAR (Rattus norvegicus, UniProt P62813+P63138, Y86A); experiment: Patch clamp, HEK293, mutant GABAAR; assay type: cell-based
T6 construct: expressed in transfected cells; host or cells: HEK293
Experimental: as §1, §2, §3, §4

α1^E208A β2 γ2 GABAAR = molecular target: T7, α1^E208A β2 γ2 GABAAR (Rattus norvegicus, UniProt P62813+P63138, E235A); experiment: Patch clamp, HEK293, mutant GABAAR; assay type: cell-based; conditions: GABA-evoked currents
T7 construct: expressed in transfected cells; host or cells: HEK293
Experimental: as §1, §2, §3, §4

α1^F99A β2 γ2 GABAAR = molecular target: T8, α1^F99A β2 γ2 GABAAR (Rattus norvegicus, UniProt P62813+P63138, F126A); experiment: Patch clamp, HEK293, mutant GABAAR; assay type: cell-based; conditions: GABA-evoked currents
T8 construct: expressed in transfected cells; host or cells: HEK293
Experimental: as §1, §2, §3, §4

α1^H101A β2 γ2 GABAAR = molecular target: T9, α1^H101A β2 γ2 GABAAR (Rattus norvegicus, UniProt P62813+P63138, H128A); experiment: Patch clamp, HEK293, mutant GABAAR; assay type: cell-based; conditions: GABA-evoked currents
T9 construct: expressed in transfected cells; host or cells: HEK293
Experimental: as §1, §2, §3, §4

α1^S158A β2 γ2 GABAAR = molecular target: T10, α1^S158A β2 γ2 GABAAR (Rattus norvegicus, UniProt P62813+P63138, S185A); experiment: Patch clamp, HEK293, mutant GABAAR; assay type: cell-based; conditions: GABA-evoked currents
T10 construct: expressed in transfected cells; host or cells: HEK293
Experimental: as §1, §2, §3, §4

α1^S205A β2 γ2 GABAAR = molecular target: T11, α1^S205A β2 γ2 GABAAR (Rattus norvegicus, UniProt P62813+P63138, S232A); experiment: Patch clamp, HEK293, mutant GABAAR; assay type: cell-based; conditions: GABA-evoked currents
T11 construct: expressed in transfected cells; host or cells: HEK293
Experimental: as §1, §2, §3, §4

α1^T206A β2 γ2 GABAAR = molecular target: T12, α1^T206A β2 γ2 GABAAR (Rattus norvegicus, UniProt P62813+P63138, T233A); experiment: Patch clamp, HEK293, mutant GABAAR; assay type: cell-based; conditions: GABA-evoked currents
T12 construct: expressed in transfected cells; host or cells: HEK293
Experimental: as §1, §2, §3, §4

α1^Y159A β2 γ2 GABAAR = molecular target: T13, α1^Y159A β2 γ2 GABAAR (Rattus norvegicus, UniProt P62813+P63138, Y186A); experiment: Patch clamp, HEK293, mutant GABAAR; assay type: cell-based; conditions: GABA-evoked currents
T13 construct: expressed in transfected cells; host or cells: HEK293
Experimental: as §1, §2, §3, §4

α1 β2^E181G γ2 GABAAR = molecular target: T14, α1 β2^E181G γ2 GABAAR (Rattus norvegicus, UniProt P62813+P63138, E206G); experiment: Patch clamp, HEK293, mutant GABAAR; assay type: cell-based
T14 construct: expressed in transfected cells; host or cells: HEK293
Description: (§5) The subunits are color-coded individually. The boxed regions are further enlarged in the middle panels, highlighting the predicted glutamate binding pocket in the α+ and β− interface, just below the loop C. […] Relative potentiation was obtained by normalizing potentiation observed in the mutated receptor to that in the respective wild-type receptor.
as §1, §2, §3, §4

α1^K104D β2 γ2 GABAAR = molecular target: T15, α1^K104D β2 γ2 GABAAR (Rattus norvegicus, UniProt P62813+P63138, K131D); experiment: Patch clamp, HEK293, mutant GABAAR; assay type: cell-based
T15 construct: expressed in transfected cells; host or cells: HEK293
Description: as §5, §1, §2, §3, §4

α1^K155D β2 γ2 GABAAR = molecular target: T16, α1^K155D β2 γ2 GABAAR (Rattus norvegicus, UniProt P62813+P63138, K182D); experiment: Patch clamp, HEK293, mutant GABAAR; assay type: cell-based; conditions: GABA-evoked currents
T16 construct: expressed in transfected cells; host or cells: HEK293
Description: as §5, §1, §2, §3, §4

## NCCCC(=O)O [GABA, gamma-Aminobutyric acid]
α1β2 GABAARs
  [3H]glutamate binding activity in presence of competitor: 939.2 ± 88.8 CPM
α1 β2 ^I180A γ2 GABAAR
  Imax (nA): 1.7 ± 0.4 nA
α1 β2^G126A γ2 GABAAR; GABA dose-response
  Hill Slope: 2.28 ± 0.74
α1 β2^G126A γ2 GABAAR; GABA-evoked currents
  Imax (nA): 1.3 ± 0.4 nA
α1 β2^Q63A γ2 GABAAR; GABA dose-response
  Hill Slope: 2.09 ± 0.93
α1 β2^Q63A γ2 GABAAR; GABA-evoked currents
  Imax (nA): 1.0 ± 0.5 nA
α1 β2^V177A γ2 GABAAR; GABA dose-response
  Hill Slope: 1.12 ± 0.37
α1 β2^V177A γ2 GABAAR; GABA-evoked currents
  Imax (nA): 1.7 ± 0.9 nA
α1 β2^Y61A γ2 GABAAR; GABA dose-response
  Hill Slope: 2.91 ± 1.30
α1 β2^Y61A γ2 GABAAR; GABA-evoked currents
  Imax (nA): 1.0 ± 0.5 nA
α1^E208A β2 γ2 GABAAR
  Imax (nA): 1.8 ± 0.8 nA
α1^F99A β2 γ2 GABAAR
  Imax (nA): 1.0 ± 0.7 nA
α1^H101A β2 γ2 GABAAR
  Imax (nA): 0.9 ± 0.5 nA
α1^S158A β2 γ2 GABAAR
  Imax (nA): 1.3 ± 0.5 nA
α1^S205A β2 γ2 GABAAR
  Imax (nA): 2.3 ± 1.1 nA
α1^T206A β2 γ2 GABAAR
  Imax (nA): 1.9 ± 0.8 nA
α1^Y159A β2 γ2 GABAAR
  Imax (nA): 1.1 ± 0.5 nA
α1 β2^E181G γ2 GABAAR; GABA dose-response
  Hill Slope: 1.59 ± 0.14
α1 β2^E181G γ2 GABAAR; GABA-evoked currents
  Imax (nA): 1.1 ± 0.2 nA
α1^K104D β2 γ2 GABAAR; GABA dose-response
  Hill Slope: 1.70 ± 0.17
α1^K104D β2 γ2 GABAAR; GABA-evoked currents
  Imax (nA): 2.3 ± 0.7 nA
α1^K155D β2 γ2 GABAAR
  Imax (nA): 1.3 ± 0.5 nA
